This note sets out measurements from PubChem BioAssay AID652177 (Vanderbilt Specialized Chemistry Center, 2013).

For the assay, the target named is High affinity choline transporter 1 (Homo sapiens) (UniProt Q9GZV3). As to the kind of experiment: inhibition of SLC5A7-mediated choline transport – cell-based, HEK-293 hCHT, [3H]-choline uptake, dose response (AID 652177). To be noted: 15 min, IC50 at 10 uM choline.

The structures appear in SMILES notation.

High affinity choline transporter 1 (Homo sapiens), sequence (Q9GZV3 whole entry, looked up): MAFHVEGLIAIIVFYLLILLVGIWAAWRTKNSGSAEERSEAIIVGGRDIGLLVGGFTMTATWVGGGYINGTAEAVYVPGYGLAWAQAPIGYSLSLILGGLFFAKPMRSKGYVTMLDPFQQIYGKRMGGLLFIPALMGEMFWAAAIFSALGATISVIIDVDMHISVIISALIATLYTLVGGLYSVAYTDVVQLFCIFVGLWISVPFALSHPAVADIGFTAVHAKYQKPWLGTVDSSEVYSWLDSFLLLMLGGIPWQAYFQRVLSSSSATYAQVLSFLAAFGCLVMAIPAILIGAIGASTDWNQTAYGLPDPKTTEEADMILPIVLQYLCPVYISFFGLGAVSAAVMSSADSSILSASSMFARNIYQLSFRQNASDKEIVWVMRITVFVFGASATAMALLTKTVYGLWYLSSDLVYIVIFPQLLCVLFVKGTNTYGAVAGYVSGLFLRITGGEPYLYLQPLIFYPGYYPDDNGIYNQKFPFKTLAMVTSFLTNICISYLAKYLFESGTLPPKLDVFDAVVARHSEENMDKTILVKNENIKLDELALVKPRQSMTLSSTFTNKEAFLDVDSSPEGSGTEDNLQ

For `CCc1cc(CNC(=O)c2ccc(OC)c(OCCN3CCCCC3)c2)on1`, the IC50 was 2.21 µM.

As usually defined, the IC50 is the concentration that gives 50% inhibition. Low values mean higher potency, high ones lower potency.
